# Patent US11534377B2, “Hair growth agent” (KOBAYASHI PHARMACEUTICAL CO., LTD., priority 2016, dated 2022)
# How the values were obtained:
# [1] = system: hair papilla cells; assay: Hair papilla cell proliferation test by two-dimensional culture (Example 5); format: cell-based, C57BL/6N mouse; conditions: final concentration 0.1 wt %, cultured for 3 days; FIG. 18
# Source text: Hair papilla cells transmit new hair growth signals to hair matrix cells via signaling substances to activate hair matrix cells, thereby controlling processes of new hair growth and hair elongation. Accordingly, the hair shaft growth promoting activity and the like of test substances can be evaluated from a proliferation rate of hair papilla cells. In this Example, the skin of the whisker region was taken from a C57BL/6N mouse and hair papillae were harvested from isolated whisker follicles under a stereo microscope. Six hair papillae were fixed to the bottom surface of a 60 mm-plastic petri dish (from Sumitomo Bakelite Co., Ltd.), and the primary culture was performed at 37° C. in the presence of 5% CO2 by using a hair papilla cell culture medium in which 2% FCS (fetal calf serum), 0.6% ITT (insulin-transferrin-triiodothyronine mixture), 1% BPE (bovine pituitary extract), and 0.6% Cyp (cyproterone solution) were added to a PCGM base medium. Afterwards, the medium was replaced every 2 to 3 days and subculturing was repeated about every two weeks. In this experiment, hair papilla cells at passage 3 or less were used. […] The number of cells after culturing for 3 days was counted by using a hemocytometer, and proliferation rates in test solution A and the test solution B were calculated relative to 100% for a proliferation rate in the negative control as 100%.
# [2] = system: transplanted mice (hair follicles of haired mice transplanted into the back of nude mice); assay: Hair shaft growth in nude mice transplanted with hair follicles of haired mice (Example 1); format: in vivo; conditions: for Hair shaft growth rate: topical 4 times per day
# Experimental: Hair follicles (surgically prepared) of haired mice were transplanted into the back of nude mice (from Sankyo Labo Service Corporation, Inc.) to produce transplanted mice manipulated such that each hair can be distinguished and a plurality of hair cycles can be observed. First, a 50% ethanol aqueous solution (12.5 μl, not containing the agent) was applied to the transplanted mice 4 times per day during new hair growth in the first hair cycle to obtain reference data of a hair cycle. After the hair had shed following the end of the first hair cycle, a 50% ethanol aqueous solution (12.5 μl) containing a predetermined amount of the agent was applied to the mice 4 times per day to obtain data on effects of the agent. After the hair had shed following the end of the second hair cycle, a 50% ethanol aqueous solution (12.5 μl) containing the agent in the same amount as that in the second hair cycle was applied to the mice in a similar manner to the second hair cycle to obtain reproducibility data on effects of the agent. As the agent, D-chiro-inositol (from Wako Pure Chemical Industries Ltd.) and its stereoisomers as chiro-inositol, L-chiro-inositol (from Tokyo Chemical Industry Co., Ltd.), myo-inositol (from Wako Pure Chemical Industries Ltd.), allo-inositol (cis-1,2,3,4-trans-5,6-cyclohexaneheaxol) (from Tokyo Chemical Industry Co., Ltd.), epi-inositol (cis-1,2,3,4,5-trans-6-cyclohexanehexaol) (from Tokyo Chemical Industry Co., Ltd.), muco-inositol (cis-1,2,4,5-trans-3,6-cyclohexanehexaol) (from Tokyo Chemical Industry Co., Ltd.), and scyllo-inositol (cis-1,3,5-trans-2,4,6-cyclohexanehexaol) (from Tokyo Chemical Industry Co., Ltd.) were used. For each agent solution, the lengths of hair shafts were measured every 2 to 3 days, an average length of hair shafts that changed day by day was plotted as one dot at each time point in a graph, and a similar plotting was repeated for 3 to 4 mice. The results were shown in Tables 1 to 14 and FIGS. 1 to 14.
# [3] = system: hair papilla cell spheroids; assay: Hair papilla cell proliferation test by three-dimensional culture (Example 6); format: cell-based, C57BL/6N mouse; conditions: final concentrations 0.05 wt %, 0.1 wt %, and 1 wt %, cultured for 3 days; FIG. 19
# Experimental: In this Example, hair papilla cells prepared in a similar manner to Example 5 were seeded in a 96-well U-bottom microplate for cell culture (from Sumitomo Bakelite Co., Ltd.) at 6,000 cells/well and centrifuged with a plate centrifuge at room temperature and at a rotating speed of 1,000 rpm for 1 minute to yield three-dimensional hair papilla cell spheroids. The spheroids were cultured for 3 days by using each of test solutions A1 to A3 that were hair papilla cell culture media to which D-chiro-inositol dissolved in PBS was added at a final concentration of 0.05 wt %, 0.1 wt %, or 1 wt %; test solutions B1 to B3 that were hair papilla cell culture media to which myo-inositol dissolved in PBS was added at a final concentration of 0.05 wt %, 0.1 wt %, or 1 wt %; and a negative control that was a hair papilla cell culture medium to which PBS alone was added. The spheroids after culturing for 3 days were imaged by using a VHX2000 digital microscope (Keyence Corporation), and the area of the spheroids was calculated by using a digital microscope analysis tool. By calculating a spheroid area increase rate in the test solutions A1 to A3 and B1 to B3, relative to an area increase rate in the negative control as 100%, the proliferation of hair papilla cells in conditions further close to in vivo condition was quantified.
# [4] = system: crab-eating macaque (Macaca fascicularis); assay: New hair growth test in monkey (Example 4); format: in vivo; conditions: 1 wt % in 50% ethanol, once/day 150 μl, 8 weeks, sparse hair region of head; number of hair before application = 100%
# Source text: A crab-eating macaque (Macaca fascicularis) is a monkey (class: Mammalia, order: Primates, family: Cercopithecidae, genus: Macaca) that has many similarities to humans, such as the morphology of the temporomandibular joint, and is frequently employed as a laboratory animal for morphological studies and medication studies due to its easy breeding and rearing. The crab-eating macaque is known for the replacement of the body hair in a six-month cycle in a year. Among aged female monkeys that had babies repeatedly and aged male monkeys of low social status, individuals with observed symptoms of hair thinning or sparse hair emerge with low frequency. […] In this Example, to an aged crab-eating macaque (19 years of age, male) having sparse body hair of the head, a test solution A in which D-chiro-inositol (from Wako Pure Chemical Industries Ltd.) was dissolved in 50% ethanol at a concentration of 1 wt % and a test solution B in which myo-inositol was dissolved in 50% ethanol at a concentration of 1 wt % were applied every day to about 4 cm^2-sparse hair regions (2 cm×2 cm) in both left and right sides across the median line of the head of the macaque. The application (once/day, 150 μl) was performed over 8 weeks, and 50% ethanol was applied as a negative control. At the end of 8 weeks, hair shafts in the applied regions were cut with hair clippers while leaving 2 to 3 mm from pores toward the outside of the body, and the total number of hair protruded from the pores in the applied regions was counted. A new hair growth rate was calculated as an increase rate in the number of hair at the end of 8 weeks, relative to the number of hair protruded from pores in the same regions before the application at the start of the test as 100%.
# [5] = system: obese mice; conditions: insulin sensitivity increasing substances, PTL 2; cited from earlier work
# [6] = 1 wt % in 50% ethanol, second hair cycle
# [7] = 1 wt % in 50% ethanol, third hair cycle (reproducibility)
# [8] = 1 wt %, third hair cycle (reproducibility)
# [9] = 5 wt % in 50% ethanol, second hair cycle
# [10] = 5 wt % in 50% ethanol, third hair cycle (reproducibility)
# [11] = 5 wt %, third hair cycle (reproducibility)
SMILES,Hair papilla cell proliferation rate vs negative control [1],"Hair shaft growth rate [2, 6]","Hair shaft growth rate [2, 7]","Hair shaft maximum length ([2]; 1 wt %, second hair cycle)","Hair shaft maximum length [2, 8]","Hair shaft growth rate [2, 9]","Hair shaft growth rate [2, 10]",Hair growth activity (hair shaft growth rate and maximum length vs reference data) ([2]; 5 wt % or 1 wt %),"Hair shaft maximum length ([2]; 5 wt %, second hair cycle)","Hair shaft maximum length [2, 11]",Hair papilla cell spheroid area vs negative control [3],New hair growth rate [4],Hair growth activity (hair shaft growth rate and maximum length vs reference data) ([2]; 5 wt %),Effect on hair loss [5]
"O[C@H]1[C@H](O)[C@@H](O)[C@H](O)[C@@H](O)[C@H]1O [myo-inositol, cis-1,2,3,5-trans-4,6-cyclohexanehexaol]",no significant difference was observed,0.45 ± 0.03 mm/day,0.44 ± 0.08 mm/day,4.9 ± 0.5 mm,5.0 ± 0.5 mm,0.37 ± 0.05 mm/day,0.39 ± 0.06 mm/day,hair growth activity was not confirmed,4.6 ± 0.5 mm,4.7 ± 0.5 mm,no significant differences were observed,107.1%,,
OC1C(O)C(O)C(O)C(O)C1O [L-chiro-inositol],,,,,,0.33 ± 0.08 mm/day,0.33 ± 0.13 mm/day,,4.9 ± 0.7 mm,4.8 ± 0.8 mm,,,hair growth activity was not confirmed,
"OC1C(O)C(O)C(O)C(O)C1O (stereo not drawn) [muco-inositol, cis-1,2,4,5-trans-3,6-cyclohexanehexaol]",,,,,,0.35 ± 0.03 mm/day,0.36 ± 0.10 mm/day,,4.9 ± 0.3 mm,5.1 ± 0.3 mm,,,hair growth activity was not confirmed,
"OC1C(O)C(O)C(O)C(O)C1O (stereo not drawn) [allo-inositol, cis-1,2,3,4-trans-5,6-cyclohexaneheaxol]",,0.37 ± 0.03 mm/day,0.40 ± 0.04 mm/day,5.0 ± 0.5 mm,5.2 ± 0.5 mm,0.43 ± 0.02 mm/day,0.40 ± 0.03 mm/day,hair growth activity was not confirmed,5.5 ± 0.3 mm,5.5 ± 0.8 mm,,,,
"OC1C(O)C(O)C(O)C(O)C1O (stereo not drawn) [epi-inositol, cis-1,2,3,4,5-trans-6-cyclohexanehexaol]",,0.43 ± 0.06 mm/day,0.45 ± 0.09 mm/day,5.2 ± 0.3 mm,5.3 ± 0.4 mm,0.33 ± 0.09 mm/day,0.32 ± 0.09 mm/day,hair growth activity was not confirmed,4.7 ± 0.6 mm,4.5 ± 0.6 mm,,,,
CN(C)C(=N)N=C(N)N [metformin],,,,,,,,,,,,,,prevented hair loss or slowed progress of hair loss
"O[C@H]1[C@H](O)[C@@H](O)[C@H](O)[C@@H](O)[C@@H]1O [scyllo-inositol, cis-1,3,5-trans-2,4,6-cyclohexanehexaol]",,,,,,0.35 ± 0.09 mm/day,0.35 ± 0.09 mm/day,,4.4 ± 0.3 mm,4.4 ± 0.5 mm,,,hair growth activity was not confirmed,
